Test results from US20240226343A1, “NEUROPEPTIDE Y1 RECEPTOR (NPY1R) TARGETED THERAPEUTICS AND USES THEREOF” (RADIONETICS ONCOLOGY, INC., priority 2022, published 2024).

Target: T1, hNPY1R (Homo sapiens, UniProt P25929)
T1 construct: SK-N-MC cells endogenously expressing the NPY1R receptor; endogenous in cells; host or cells: SK-N-MC cells (crude membrane fractions)
T1 sequence (P25929 1-384): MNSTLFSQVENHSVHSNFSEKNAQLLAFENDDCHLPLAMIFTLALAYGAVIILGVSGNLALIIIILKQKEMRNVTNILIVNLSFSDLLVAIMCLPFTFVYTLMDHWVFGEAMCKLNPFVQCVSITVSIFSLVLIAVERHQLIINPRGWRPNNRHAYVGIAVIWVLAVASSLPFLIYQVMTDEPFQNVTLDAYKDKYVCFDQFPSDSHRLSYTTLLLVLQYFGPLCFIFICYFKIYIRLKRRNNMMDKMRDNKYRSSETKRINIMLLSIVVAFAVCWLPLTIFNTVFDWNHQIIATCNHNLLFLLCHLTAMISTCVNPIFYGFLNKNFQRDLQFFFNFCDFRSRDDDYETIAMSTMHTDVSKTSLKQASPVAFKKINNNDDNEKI
Test: NPY1R binding assay: SK-N-MC membranes, [125I]-Peptide YY (human) competition
Settings: data obtained after 60 minutes at 37° C.; SK-N-MC membranes; [125I]-Peptide YY 0.05 nM; read-out: hNPY1R binding Ki* †
Description: Crude membrane fractions are prepared from SK-N-MC cells endogenously expressing the NPY1R receptor. The cells are grown to 85-100% confluence on standard tissue culture dishes in Eagle's Minimum Essential Medium supplemented with 10% dialyzed FBS. To prepare membranes, cells are scraped and collected in 1× Dulbecco's phosphate buffered saline and then pelleted at 1000 RPM's. The cell pellet is reconstituted in membrane preparation buffer (20 mM HEPES, 6 mM MgCl2 and 1 mM EGTA, protease inhibitor tablets, pH 7.4) and placed in a cell disruption vessel at 1000 PSI for 30 minutes on ice. The pressurized contents are then released and spun down at 1000 RPMs and the supernatant is collected and further centrifuged at 15,000 RPMs to pellet the membranes. The membrane pellet is resuspended in membrane preparation buffer, snap frozen and stored at −80° C. for later use.
[…] Assay contents are then filtered through unifilter GF/C microplates and washed with 9×400 μl of cold wash buffer (25 mM HEPES, 5 mM MgCl2, 1 mM CaCl2), 500 mM NaCl, 0.1% Tween-20, pH 7.4). Assay plates are read using a Top Count NXT and Ki values for compounds are determined using a GraphPad Prism 6 non-linear regression analysis.

Ki [nM] | Compound
10 to 100 | CCC(=O)NCCNC(=O)/N=C(/N)NCCC[C@@H](NC(=O)C(c1ccccc1)c1cccc(OCCCCNC(=O)CNC(=O)[C@@H](CC(N)=O)NC(=O)CN2CCN(CC(=O)O)CCN(CC(=O)O)CCN(CC(=O)O)CC2)c1)C(=O)NCc1ccc(O)cc1 (single isomer, unassigned) [Compound 112A]
< 10 | CCC(=O)NCCNC(=O)/N=C(/N)NCCC[C@@H](NC(=O)C(c1ccccc1)c1cccc(OCCCCNC(=O)CNC(=O)[C@@H](CC(N)=O)NC(=O)CN2CCN(CC(=O)O)CCN(CC(=O)O)CCN(CC(=O)O)CC2)c1)C(=O)NCc1ccc(O)cc1 (single isomer, unassigned) [Compound 112B]
10 to 100 | CCC(=O)NCCNC(=O)/N=C(/N)NCCC[C@@H](NC(=O)C(c1ccccc1)c1cccc(OCCOCCOCCOCCOCCNC(=O)CN2CCN(CC(=O)O)CCN(CC(=O)O)CCN(CC(=O)O)CC2)c1)C(=O)NCc1ccc(CNC(N)=O)cc1 (single isomer, unassigned) [Compound 114A]
10 to 100 | CCC(=O)NCCNC(=O)/N=C(/N)NCCC[C@@H](NC(=O)C(c1ccccc1)c1cccc(OCCOCCOCCOCCOCCNC(=O)CN2CCN(CC(=O)O)CCN(CC(=O)O)CCN(CC(=O)O)CC2)c1)C(=O)NCc1ccc(CNC(N)=O)cc1 (single isomer, unassigned) [Compound 114B]
10 to 100 | CCC(=O)NCCNC(=O)/N=C(/N)NCCC[C@@H](NC(=O)C(c1ccccc1)c1cccc(OCCCCNC(=O)CCC(=O)N(CC(=O)O)C2CCN(C(=O)CN3CCN(CC(=O)O)CCN(CC(=O)O)CCN(CC(=O)O)CC3)CC2)c1)C(=O)NCc1ccc(O)cc1 (single isomer, unassigned) [Compound 117A]
< 10 | CCC(=O)NCCNC(=O)/N=C(/N)NCCC[C@@H](NC(=O)C(c1ccccc1)c1cccc(OCCCCNC(=O)CCC(=O)N(CC(=O)O)C2CCN(C(=O)CN3CCN(CC(=O)O)CCN(CC(=O)O)CCN(CC(=O)O)CC3)CC2)c1)C(=O)NCc1ccc(O)cc1 (single isomer, unassigned) [Compound 117B]

Compound | Ki [nM]
CCC(=O)NCCNC(=O)/N=C(/N)NCCC[C@@H](NC(=O)C(c1ccccc1)c1cccc(OCCCCNC(=O)CC[C@@H](NC(=O)CN2CCN(CC(=O)O)CCN(CC(=O)O)CCN(CC(=O)O)CC2)C(=O)O)c1)C(=O)NCc1ccc(O)cc1 (single isomer, unassigned) [Compound 110B] | < 10
CCC(=O)NCCNC(=O)/N=C(/N)NCCC[C@@H](NC(=O)C(c1ccccc1)c1cccc(OCCCCNc2c(NCCNC(=O)CN3CCN(CC(=O)O)CCN(CC(=O)O)CCN(CC(=O)O)CC3)c(=O)c2=O)c1)C(=O)NCc1ccc(O)cc1 (single isomer, unassigned) [Compound 111A] | < 10
CCC(=O)NCCNC(=O)/N=C(/N)NCCC[C@@H](NC(=O)C(c1ccccc1)c1cccc(OCCCCNc2c(NCCNC(=O)CN3CCN(CC(=O)O)CCN(CC(=O)O)CCN(CC(=O)O)CC3)c(=O)c2=O)c1)C(=O)NCc1ccc(O)cc1 (single isomer, unassigned) [Compound 111B] | < 10

Same assay, conditions: data obtained after 120 minutes at rt; SK-N-MC membranes; [125I]-Peptide YY; read-out: hNPY.R binding Ki* ††

Ki [nM] | Compound
< 10 | CCC(=O)NCCNC(=O)/N=C(/N)NCCC[C@@H](NC(=O)C(c1ccccc1)c1cccc(OCCCCNc2c(NCCNC(=O)[C@@H](CN)NC(=O)CN3CCN(CC(=O)O)CCN(CC(=O)O)CCN(CC(=O)O)CC3)c(=O)c2=O)c1)C(=O)NCc1ccc(O)cc1 (single isomer, unassigned) [Compound 115A]
< 10 | CCC(=O)NCCNC(=O)/N=C(/N)NCCC[C@@H](NC(=O)C(c1ccccc1)c1cccc(OCCCCNc2c(NCCNC(=O)[C@@H](CN)NC(=O)CN3CCN(CC(=O)O)CCN(CC(=O)O)CCN(CC(=O)O)CC3)c(=O)c2=O)c1)C(=O)NCc1ccc(O)cc1 (single isomer, unassigned) [Compound 115B]
< 10 | CCC(=O)NCCNC(=O)/N=C(/N)NCCC[C@@H](NC(=O)C(c1ccccc1)c1cccc(OCCCCNc2c(NCCNC(=O)[C@@H](CCCCN)NC(=O)CN3CCN(CC(=O)O)CCN(CC(=O)O)CCN(CC(=O)O)CC3)c(=O)c2=O)c1)C(=O)NCc1ccc(O)cc1 (single isomer, unassigned) [Compound 116A]
10 to 100 | CCC(=O)NCCNC(=O)/N=C(/N)NCCC[C@@H](NC(=O)C(c1ccccc1)c1cccc(OCCCCNC(=O)CCC(=O)N(CC(=O)O)C2CCN(C(=O)CN3CCN(CC(=O)O)CCN(CC(=O)O)CCN(CC(=O)O)CC3)CC2)c1)C(=O)NCc1ccc(O)cc1 (single isomer, unassigned) [Compound 117A]
< 10 | CCC(=O)NCCNC(=O)/N=C(/N)NCCC[C@@H](NC(=O)C(c1ccccc1)c1cccc(OCCCCNC(=O)CCC(=O)N(CC(=O)O)C2CCN(C(=O)CN3CCN(CC(=O)O)CCN(CC(=O)O)CCN(CC(=O)O)CC3)CC2)c1)C(=O)NCc1ccc(O)cc1 (single isomer, unassigned) [Compound 117B]
